From patent US11370794B2, “Toll-like receptor antagonist compounds and methods of use” (Dynavax Technologies Corporation, priority 2016, dated 2022)
Where two headings read alike, the source gives them in different places.

Legend:
human TLR8 = target: T1, human TLR8 (Homo sapiens, UniProt Q9NR97); test: Inhibition of human TLR8 in human monocytes (TNF-alpha / IL-1 beta ELISA); format: cell-based; details: human monocytes, agonist ORN8L 100 μg/mL, 24 hours
T1 construct: endogenous in cells; host or cells: primary human monocytes (CD14 microbeads) from buffy coats of healthy donors
T1 sequence (Q9NR97 27-1041): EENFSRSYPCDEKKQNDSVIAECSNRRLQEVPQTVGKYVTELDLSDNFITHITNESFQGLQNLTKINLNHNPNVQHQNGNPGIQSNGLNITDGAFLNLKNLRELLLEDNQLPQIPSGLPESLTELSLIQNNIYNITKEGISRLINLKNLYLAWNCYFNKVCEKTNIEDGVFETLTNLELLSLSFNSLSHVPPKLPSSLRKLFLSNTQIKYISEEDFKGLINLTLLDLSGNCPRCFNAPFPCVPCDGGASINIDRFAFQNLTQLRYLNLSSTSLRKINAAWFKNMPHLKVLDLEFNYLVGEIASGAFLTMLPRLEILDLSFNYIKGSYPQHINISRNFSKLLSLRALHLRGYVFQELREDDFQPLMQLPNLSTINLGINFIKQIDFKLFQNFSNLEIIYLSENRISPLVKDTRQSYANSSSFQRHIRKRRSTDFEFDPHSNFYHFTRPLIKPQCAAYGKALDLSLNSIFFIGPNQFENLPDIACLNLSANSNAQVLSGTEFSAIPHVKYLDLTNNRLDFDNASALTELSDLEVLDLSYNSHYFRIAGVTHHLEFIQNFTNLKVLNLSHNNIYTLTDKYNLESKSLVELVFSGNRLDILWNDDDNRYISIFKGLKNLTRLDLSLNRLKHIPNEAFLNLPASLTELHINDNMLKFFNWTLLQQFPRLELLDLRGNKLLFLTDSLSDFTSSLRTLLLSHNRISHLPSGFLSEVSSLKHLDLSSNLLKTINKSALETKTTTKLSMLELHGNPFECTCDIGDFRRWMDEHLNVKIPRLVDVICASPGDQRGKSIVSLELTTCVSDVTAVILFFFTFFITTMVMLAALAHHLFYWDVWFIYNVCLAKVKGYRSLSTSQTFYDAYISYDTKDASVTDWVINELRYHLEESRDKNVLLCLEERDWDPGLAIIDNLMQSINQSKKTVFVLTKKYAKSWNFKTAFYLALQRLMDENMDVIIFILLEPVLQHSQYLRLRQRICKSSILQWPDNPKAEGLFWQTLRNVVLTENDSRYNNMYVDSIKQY
From the text: Example B2—Inhibition of Human TLR8 in Human Monocytes
When placed in cell culture, engagement of TLR8 with an agonist leads to expression and release of cytokines into the media.
Buffy coats from anonymized, healthy human donors. CD14 microbeads (Milteny Cat. No. 130-050-201). TLR8 agonist, (5′-M2UGCUGCUUGUG-/glycerol/-GUGUUCGUCGUM2-5′ with M2=C6-linker, ORN8L, RNA oligonucleotide (Chem Genes Corp.). Human TNF-alpha ELISA kit (Mabtech Cat. No. 3510-1H-20). Human interleukin (IL)-1 beta ELISA kit (Mabtech Cat. No. 3415-1H-20).
Following isolation of monocytes from buffy coats, human monocytes were plated into 96 well plates at approximately 200,000 cells per well. Test compounds were serially diluted and added to the plates. Immediately after adding test compounds, the TLR8 agonist (ORN8L, RNA oligonucleotide) was added to a final concentration of 100 μg/mL. Cells were incubated for 24 hours at 37° C. A portion of the media supernatant was analyzed for the presence of TNF-alpha and/or IL-1 beta using ELISA kits. The amount of TNF-alpha or IL-1 beta produced is a reflection of the amount of TLR8-dependent receptor activity. The IC50 values (the concentration at which 50% of the TLR8-dependent receptor activity is reduced) were calculated based upon the TLR8-dependent receptor activity over a range of different test compound concentrations.

human TLR9 = target: T2, human TLR9 (Homo sapiens, UniProt Q9NR96); test: Inhibition of human TLR9 in human B cells (IL-6 ELISA); format: cell-based; details: for IC50: human B cells, agonist 1018 ISS 1 μM; for inhibits TLR9-dependent responses (in words): summary statement of the description
T2 construct: endogenous in cells; host or cells: primary human B cells (CD19 microbeads) from buffy coats of healthy donors
T2 sequence (Q9NR96 26-1032): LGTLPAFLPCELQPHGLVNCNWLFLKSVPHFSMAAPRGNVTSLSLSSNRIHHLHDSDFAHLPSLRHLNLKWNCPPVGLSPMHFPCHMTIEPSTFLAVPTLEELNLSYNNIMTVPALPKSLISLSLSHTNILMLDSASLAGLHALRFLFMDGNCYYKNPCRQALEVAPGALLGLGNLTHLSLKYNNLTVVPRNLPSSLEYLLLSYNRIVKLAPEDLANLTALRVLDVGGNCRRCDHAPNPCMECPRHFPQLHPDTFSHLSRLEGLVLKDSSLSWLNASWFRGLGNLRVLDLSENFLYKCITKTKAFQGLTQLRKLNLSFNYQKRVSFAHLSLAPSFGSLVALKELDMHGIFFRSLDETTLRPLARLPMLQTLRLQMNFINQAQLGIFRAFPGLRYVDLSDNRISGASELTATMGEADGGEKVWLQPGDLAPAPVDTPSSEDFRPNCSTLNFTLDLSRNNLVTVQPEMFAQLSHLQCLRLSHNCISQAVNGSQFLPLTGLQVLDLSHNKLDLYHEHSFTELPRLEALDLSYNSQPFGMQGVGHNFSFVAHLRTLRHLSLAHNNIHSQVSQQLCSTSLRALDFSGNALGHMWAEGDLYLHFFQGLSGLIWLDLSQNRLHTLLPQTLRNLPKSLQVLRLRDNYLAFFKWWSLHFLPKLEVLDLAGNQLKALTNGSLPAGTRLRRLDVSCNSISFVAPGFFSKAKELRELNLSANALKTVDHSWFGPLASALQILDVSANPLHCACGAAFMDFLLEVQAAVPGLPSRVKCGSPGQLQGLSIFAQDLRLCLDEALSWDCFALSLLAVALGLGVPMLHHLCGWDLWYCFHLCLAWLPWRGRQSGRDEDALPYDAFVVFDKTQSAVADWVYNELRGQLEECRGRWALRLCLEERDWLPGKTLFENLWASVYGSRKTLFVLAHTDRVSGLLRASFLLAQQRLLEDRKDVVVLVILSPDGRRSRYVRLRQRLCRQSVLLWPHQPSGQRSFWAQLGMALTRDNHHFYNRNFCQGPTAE
Description: Example B3—Inhibition of Human TLR9 in Human B Cells
When placed in cell culture, engagement of TLR9 with an agonist leads to expression and release of cytokines into the media.
Buffy coats from anonymized, healthy human donors. CD19 microbeads (Miltenyi Cat. No. 130-050-301). TLR9 agonist, 1018 ISS, CpG-containing DNA oligonucleotide. Human interleukin (IL)-6 ELISA kit (Mabtech Cat. No. 3460-1H-20).
Following isolation of […] from buffy coats, human B cells were plated into 96 well plates at approximately 300,000 cells per well. Test compounds were serially diluted and added to the plates. Test compounds were typically assayed using a concentration range from about 0.01 μM to about 10 μM. Certain test compounds were further assayed in an expanded dilution series using a compound concentration range from about 0.001 μM to about 30 μM. Immediately after adding test compounds, the TLR9 agonist (1018 ISS, CpG-containing DNA oligonucleotide) was added to a final concentration of 1 μM. Cells were incubated for 48 hours at 37° C. A portion of the media supernatant was analyzed for the presence of IL-6 using ELISA kits. The amount of IL-6 produced is a reflection of the amount of TLR9-dependent receptor activity. The IC50 values (the concentration at which 50% of the TLR9-dependent receptor activity is reduced) were calculated based upon the TLR9-dependent receptor activity over a range of different test compound concentrations.

[1] = TNF-alpha readout, read-out: Human TLR8 IC50 TNF-a
[2] = IL-6 readout, 48 hours, range about 0.01 to 10 μM, read-out: Human TLR9 IC50
[3] = IL-6, 48 hours, expanded dilution series about 0.001 to 30 μM, read-out: Human TLR9 IC50, expanded dilution series
[4] = IL-1 beta readout, read-out: Human TLR8 IC50 IL-1b

| SMILES | IC50 (human TLR8; [1]) [µM] | IC50 (human TLR9; [2]) [µM] | IC50 (human TLR9; [3]) [µM] | inhibits TLR9-dependent responses (in words) (human TLR9) | IC50 (human TLR8; [4]) [µM] |
| --- | --- | --- | --- | --- | --- |
| Cc1ccc(-n2cc3cnnc(N4CCCC(C(=O)NCCN(C)C)C4)c3n2)cc1 (stereo not drawn) [compound 47, N-(2-(dimethylamino)ethyl)-1-(2-(p-tolyl)-2H-pyrazolo[3,4-d]pyridazin-7-yl)piperidine-3-carboxamide] | 2.62 | 0.027 |  |  |  |
| CCN(CC)C1CCN(C(=O)C2CCN(c3nnc(C)c4c(C)n(-c5ccc(C)cc5)nc34)CC2)CC1 [compound 43, (4-(diethylamino)piperidin-1-yl)(1-(3,4-dimethyl-2-(p-tolyl)-2H-pyrazolo[3,4-d]pyridazin-7-yl)piperidin-4-yl)methanone] | ≥ 20 | 0.001 | 0.013 | inhibit |  |
| Cc1ccc(-n2nc3c(N4CC(C(=O)NCCCN(C)C)C4)nnc(C)c3c2C)cc1 [compound 15, 1-(3,4-dimethyl-2-(p-tolyl)-2H-pyrazolo[3,4-d]pyridazin-7-yl)-N-(3-(dimethylamino)propyl)azetidine-3-carboxamide] | > 10 | 0.25 |  |  | > 10 |
| Cc1ccc(-n2nc3c(N4CCC(C(=O)N5CCC(CN6CCOCC6)C5)CC4)nnc(C)c3c2C)cc1 (stereo not drawn) [compound 70, (1-(3,4-dimethyl-2-(p-tolyl)-2H-pyrazolo[3,4-d]pyridazin-7-yl)piperidin-4-yl)(3-(morpholinomethyl)pyrrolidin-1 yl)methanone] | 5.12 | 0.15 |  |  |  |
| Cc1nnc(N2CCC(C(=O)N3CCN(C)CC3)CC2)c2nn(-c3ccccc3)c(C)c12 [59x, (1-(3,4-dimethyl-2-phenyl-2H-pyrazolo[3,4-d]pyridazin-7-yl)piperidin-4-yl)(4-methylpiperazin-1-yl)methanone] | 2.04 | 0.059 |  |  | 2.11 |
| CCN1CCN(C(=O)C2CCN(c3nncc4cn(-c5ccc(C)cc5)nc34)CC2)CC1 [compound 40, (4-ethylpiperazin-1-yl)(1-(2-(p-tolyl)-2H-pyrazolo[3,4-d]pyridazin-7-yl)piperidin-4-yl)methanone] | 0.226 | 0.026 |  |  |  |
| Cc1ccc(-n2nc3c(N4CCC(C(=O)N5CCC(CN(C)Cc6ccccc6)C5)CC4)nnc(C)c3c2C)cc1 (stereo not drawn) [compound 68, (3-((benzyl(methyl)amino)methyl)pyrrolidin-1-yl)(1-(3,4-dimethyl-2-(p-tolyl)-2H-pyrazolo[3,4-d]pyridazin-7-yl)piperidin-4-yl)methanone] | 1.18 | 0.085 |  |  |  |
| Cc1nnc(N2CCC(C(=O)NCCCN(C)C)CC2)c2nn(C3CCOCC3)c(C)c12 [compound 25, 1-(3,4-dimethyl-2-(tetrahydro-2H-pyran-4-yl)-2H-pyrazolo[3,4-d]pyridazin-7-yl)-N-(3-(dimethylamino)propyl)piperidine-4-carboxamide] | ≥ 20 | > 10 |  |  |  |
| Cc1ccc(-n2nc3c(N4CCC(CC(=O)NCCCN(C)C)CC4)nnc(C)c3c2C)cc1 [Compound No. 22, 2-(1-(3,4-dimethyl-2-(p-tolyl)-2H-pyrazolo[3,4-d]pyridazin-7-yl)piperidin-4-yl)-N-(3-(dimethylamino)propyl)acetamide] | > 10 | 0.031 |  | inhibit | > 10 |
| Cc1ccc(-n2cc3cncc(N4CCC(C(=O)NCCCN(C)C)CC4)c3n2)cc1 [Compound No. 55, N-(3-(dimethylamino)propyl)-1-(2-(p-tolyl)-2H-pyrazolo[4,3-c]pyridin-7-yl)piperidine-4-carboxamide] |  | 0.007 | 0.009 |  |  |
| Cc1ccc(-n2nc3c(N4CCC(C(=O)N5CC[C@H](CN(C)C)C5)CC4)nnc(C)c3c2C)cc1 [Compound 45a, (R)-(1-(3,4-dimethyl-2-(p-tolyl)-2H-pyrazolo[3,4-d]pyridazin-7-yl)piperidin-4-yl)(3-((dimethylamino)methyl)pyrrolidin-1-yl)methanone] |  |  |  | inhibit |  |
| Cc1ccc(-n2nc3c(N4CCC(C)(C(=O)NCCCN(C)C)CC4)nnc(C)c3c2C)cc1 [compound 20, 1-(3,4-dimethyl-2-(p-tolyl)-2H-pyrazolo[3,4-d]pyridazin-7-yl)-N-(3-(dimethylamino)propyl)-4-methylpiperidine-4-carboxamide] |  | 0.018 | 0.024 |  |  |
| Cc1ccc(-n2nc3c(N4CCC(C(=O)N5CC[C@@H](CN(C)C)C5)CC4)nnc(C)c3c2C)cc1 [Compound 45b, (S)-(1-(3,4-dimethyl-2-(p-tolyl)-2H-pyrazolo[3,4-d]pyridazin-7-yl)piperidin-4-yl)(3-((dimethylamino)methyl)pyrrolidin-1-yl)methanone] |  |  |  | inhibit |  |
